Assay results taken from PubChem BioAssay (NCI).
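The compound was tested at five concentrations on cells cultured in 96-well plates, with a 48-hour exposure period. Abbreviation: GI50, concentration required for 50% inhibition of growth. At the TGI there is no net growth.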

Experiments:
Experiment in all cases: inhibition of tumour cell growth, NCI panel, 48 h
[1] = system: SF-295 CNS
[2] = system: SF-539 CNS
[3] = system: TK-10 renal
[4] = system: U251 CNS
[5] = system: UACC-257 melanoma
[6] = system: UACC-62 melanoma
[7] = system: HCT-116 colon
[8] = system: NCI-H460 lung
[9] = system: DU-145 prostate
[10] = system: BT-549 breast

Structure (SMILES) | TGI [1] | TGI [2] | TGI [3] | TGI [4] | TGI [5] | TGI [6] | TGI [7] | TGI [8] | GI50 [7] | GI50 [8] | GI50 [1] | GI50 [2] | GI50 [3] | GI50 [4] | GI50 [5] | GI50 [6] | GI50 [9] | TGI [9] | GI50 [10] | TGI [10]
O=C(Nc1c(-c2nc3ccccc3[nH]2)sc(=S)n1-c1ccccc1)c1ccccc1 | > 100 µM | > 100 µM | > 100 µM | > 100 µM | > 100 µM | > 100 µM |  |  |  |  |  |  |  |  |  |  |  |  |  | 
O=C(CCC(=O)Nc1ccc(Cl)cc1)CC(=O)c1ccc(F)cc1 | > 100 µM | > 100 µM | > 100 µM |  | > 100 µM | > 100 µM | > 100 µM | > 100 µM |  |  |  |  |  |  |  |  |  |  |  | 
CCC[CH2][Sn]([CH2]CCC)([O]C(=O)c1cccc(F)c1)[O]C(=O)c1cccc(F)c1 | 2.86 µM | 2.31 µM | 2.58 µM | 2.26 µM | 2.6 µM | 2.09 µM | 2.55 µM | 5.38 µM | 1.29 µM | 2.08 µM | 1.48 µM | 1.1 µM | 1.29 µM | 1.05 µM | 1.17 µM | 0.719 µM |  |  |  | 
Cc1ccc(C)c(NC(=O)c2cc(-c3ccc([N+](=O)[O-])cc3)nc(N)n2)c1 | > 100 µM | > 100 µM | > 100 µM | > 100 µM | > 100 µM | > 100 µM | > 100 µM | > 100 µM |  |  |  |  |  |  |  |  |  |  |  | 
CC(C)(C)c1ccc([I+]c2ccc(C(C)(C)C)cc2)cc1 | 5.28 µM | 10.2 µM | 9.75 µM | 3.59 µM | 2.54 µM | 2.31 µM | 4 µM | 4.16 µM | 1.25 µM | 1.66 µM | 2.22 µM | 2.08 µM | 2.62 µM | 1.47 µM | 0.595 µM | 0.69 µM | 1.7 µM | 3.53 µM |  | 
O=c1cc(Cl)nc[nH]1 | > 100 µM |  | > 100 µM | > 100 µM | > 100 µM | > 100 µM | > 100 µM | > 100 µM |  |  |  |  |  |  |  |  |  |  |  | 
CC(=O)OC1CCn2nnc(COC(=O)NC(C)C)c21 (stereo not drawn) | > 100 µM | > 100 µM | > 100 µM | > 100 µM | > 100 µM | > 100 µM | > 100 µM | > 100 µM |  |  |  |  |  |  |  |  |  |  |  | 
CC(c1ccc(Br)cc1)C(C(=O)O)C(=O)O (stereo not drawn) | > 100 µM |  | > 100 µM | > 100 µM | > 100 µM | > 100 µM | > 100 µM | > 100 µM |  |  |  |  |  |  |  |  |  |  |  | 
CCCNCc1nc2ccc(Br)cc2c(=O)n1CCC | 30.6 µM | 29.5 µM |  | 26.3 µM | 26 µM | 19.8 µM | 21.5 µM |  |  |  |  |  |  |  |  |  |  |  |  | 
Cn1c(=O)cc2c3c(c(NCCCO)ccc31)C(=O)c1ccccc1-2 | > 100 µM | > 100 µM |  | > 100 µM | > 100 µM | > 100 µM | > 100 µM | > 100 µM | 0.491 µM | 2.31 µM | 1.76 µM | 8.8 µM |  | 2.6 µM | 5.37 µM | 2.45 µM | 7.62 µM | > 100 µM | 6.67 µM | > 100 µM
O=c1/c(=C/c2ccc(Cl)cc2Cl)sc2nc3ccccc3n12 | > 100 µM | > 100 µM | > 100 µM | > 100 µM | > 100 µM | > 100 µM | > 100 µM | > 100 µM |  |  |  |  |  |  |  |  |  |  |  | 
O=c1c2ccc3cccc4c(=O)cc(c5ccccc15)-c2c34 | > 100 µM |  | > 100 µM | > 100 µM | > 100 µM | > 100 µM | > 100 µM | > 100 µM |  |  |  |  |  |  |  |  |  |  |  | 
Cc1ccccc1C(=O)Oc1ccc(Oc2ccccc2)cc1 | > 100 µM | > 100 µM | > 100 µM | > 100 µM | > 100 µM | > 100 µM | > 100 µM | > 100 µM |  |  |  |  |  |  |  |  |  |  |  | 
Cc1cc(NS(=O)(=O)c2ccc(NC(=O)c3cccc4c(N)c5ccccc5nc34)cc2)no1 | 67.2 µM | 47.6 µM | > 100 µM | 78.2 µM |  | 57.7 µM | 27.6 µM | > 100 µM |  |  |  |  |  |  |  |  |  |  |  | 
CC(C)C(=O)N[C@@H](C)C(=O)N(Cc1ccc2ccccc2c1)N=O | > 100 µM | > 100 µM | > 100 µM | > 100 µM | > 100 µM | > 100 µM | > 100 µM | > 100 µM |  |  |  |  |  |  |  |  |  |  |  | 
N=C(c1ccccc1)N(O)C1CCCCC1 | > 100 µM | > 100 µM | > 100 µM | > 100 µM | > 100 µM |  | > 100 µM | > 100 µM |  |  |  |  |  |  |  |  |  |  |  | 
C=C1CC(CCCl)(c2ccccc2)OC1=O (stereo not drawn) | > 100 µM | > 62 µM | > 77.7 µM | > 100 µM | > 75.1 µM | > 100 µM | > 53.9 µM | > 100 µM |  |  |  |  |  |  |  |  |  |  |  | 
COc1cc(CSc2nc3ccc(C)cc3c(=O)n2Cc2ccccc2)cc(OC)c1OC |  | 8.32 µM | 47.9 µM | 20.8 µM | > 100 µM | 35.7 µM | 48.9 µM | > 100 µM | 2.08 µM | 2.26 µM |  | 2.26 µM | 6.47 µM | 3.2 µM | 6.73 µM | 2.03 µM | 3.14 µM | 20.4 µM | 7.07 µM | 77.5 µM
O=C1Nc2ccccc2C1Cc1ccccc1 (stereo not drawn) |  | > 100 µM | > 100 µM | > 100 µM | > 100 µM | > 100 µM | > 100 µM | > 100 µM |  |  |  |  |  |  |  |  |  | > 100 µM |  | 
CC1=CC(C)(C)N=C2SC(c3ccc(Cl)cc3)=NN12 | > 100 µM | > 100 µM | > 100 µM | 90.9 µM | > 100 µM | > 100 µM |  | > 100 µM |  |  |  |  |  |  |  |  |  |  |  | 
Cc1ccc(NC(=O)/C(CC(=O)c2c[n+](=O)c3ccccc3n2O)=N\NC(=O)C[n+]2ccccc2)cc1 | > 100 µM | > 100 µM | > 100 µM | > 100 µM | > 100 µM | > 100 µM | > 100 µM | > 100 µM |  |  |  |  |  |  |  |  |  |  |  | 
C(=C\c1csnn1)/c1cccnc1 | > 100 µM | > 100 µM | > 100 µM | > 100 µM | > 100 µM |  | > 100 µM | > 100 µM |  |  |  |  |  |  |  |  |  |  |  | 
CCCCCCCCCCCC(=O)OCC1OC(n2cc(F)c(=O)[nH]c2=O)C(N)C(OC(=O)CCCCCCCCCCC)C1O (stereo not drawn) | > 100 µM | > 100 µM | > 100 µM | > 100 µM | > 100 µM | > 100 µM | > 100 µM | > 100 µM |  |  |  |  |  |  |  |  |  |  |  | 
COc1ccc2c3c1C(=O)CCC3CO2 (stereo not drawn) | > 100 µM | > 100 µM | > 100 µM | > 100 µM | > 100 µM | > 100 µM | > 100 µM | > 100 µM |  |  |  |  |  |  |  |  |  |  |  | 
